Read-outs that look alike come from different tables or passages of the source.
Legend:
[1] = Dissolution rate: time to visually complete dissolution in purified water; format: physicochemical
Description: 100 mg of Ge-132 and 100 mg of the THGP octamer were added to 10 mL of purified water, respectively, and the mixtures were stirred at 300 rpm at room temperature, and then the time required to be visually observed as completely dissolved was measured.

[2] = cited from earlier work
[3] = Solubility of the THGP octamer in purified water or methanol, with pH of the solution; format: physicochemical
Description: To 100 mg of the THGP octamer obtained in (1), the process of adding purified water or methanol in small portions and stirring for 30 minutes at room temperature was repeated, and the volume of the solution was measured when the THGP octamer was visually observed to as completely dissolved. The solubility of the THGP octamer (Solute Amount (g)/Total Mass (g)×100%) was calculated from the measured volume. Furthermore, the pH of the solution was measured when the THGP octamer was completely dissolved.

[4] = conventional THGP polymers, stated as known property

Substance | time required for the crystals to completely dissolve ([1]; 100 mg in 10 mL purified water (1% aqueous solution), 300 rpm, room temperature) [min] | time required for complete dissolution ([1]; 1% in water, 20° C.) [min] | solubility in organic solvents, such as methanol [2, 4] | solubility in water [2, 4] | solubility (mass (g) of solute in 100 g of saturated solution) in water ([2]; water, 20° C., known comparator value) | pH of the aqueous solution (in words) ([3]; dissolved in water) | solubility in methanol (Solute Amount (g)/Total Mass (g)×100%) ([3]; methanol, room temperature) [%] | solubility in water (Solute Amount (g)/Total Mass (g)×100%) ([3]; purified water, room temperature, visually complete dissolution) [%] | solubility (mass (g) of solute in 100 g of saturated solution) in water ([3]; water, 20° C.) [%] | pH of the aqueous solution ([3]; when completely dissolved in water) | time required to completely dissolve ([1]; 100 mg in 10 mL purified water, 300 rpm, room temperature) | dissolving time ([1]; water, 20° C., same conditions as Ge-132)
poly-trans-[(2-carboxyethyl)germasesquioxane] [Ge-132] | ≥ 30 | ≥ 30 | insoluble | approximately 1% | approximately 1% |  |  |  |  |  |  | 
1,7,9,15-tetra(2′-sodium carboxyethylgermanium)-3,5,11,13-tetra-[sodium propanato(2-)-C^3′,O′]-germanium-2,4,6,8,10,12,14,16,17,18,19,20-dodecaoxa-pentacyclo[8.1^1,5.1^7,11.1^9,13.1^3,15.]icosane [THGP octamer] |  |  |  |  |  | neutral | 1.4 | 58.8 | 58.8 | around 7.5 | approximately 10 seconds | approximately 10 seconds
